Assay results published in patent US20100173873A1, “TREATMENT OF METASTASIZED TUMORS” (Novartis Vaccines and Diagnostics, Inc., priority 2005, published 2010).
“Also recorded” adds a separate entry of the source.

Legend:
PC-3M-luc tumor cells = assay: PC-3M-luc bone metastatic prostate model; type: in vivo, nude mice
Method: Cell lines. Metastatic human prostate cell line PC-3M expressing null p53, del PTEN, VEGFR, FGFR and stably transfected with a construct of luciferase were obtained under a licensing agreement with Xenogen.
In vivo efficacy studies. […]. Animals received sterile rodent chow and water ad libitum and were housed in sterile filter-top cages with 12 hour light/dark cycles. All experiments were conducted under the guidelines of the Association for Assessment and Accreditation of Laboratory Animal Care International. PC-3M luc bone metastatic model. Human prostate cancer cell line PC-3M-luc cells (1.5×10^6 cells) stably transfected with a construct of luciferase were injected via intracardiac injections. Bioluminescent imaging (Xenogen's IVIS® imaging system) was used to non-invasively monitor the in vivo growth and metastasis of PC-3M-luc tumors after cell inoculation. Nearly all PC-3M-luc tumor cell-injected animals developed prostate lesions, which were mainly localized in the femur, and mandibles. […]. Mice were monitored daily and were euthanized when moribund.
Immunohistochemistry. Bone (femurs, mandible) samples were decalcified (Protocol™, Fisher Diagnostics, Middletown, Va.). Paraffin blocks were sectioned to […] thickness and placed on positively charged glass slides. Tissues were stained with hematoxylin and eosin for general tissue morphology and identification of PC-3M cells in bone.
Nude mice were inoculated with PC-3M-Luc cells intracardiacally with 1.5×10^6 cells. […]. The PC-3M-luc cell lines were purchased from Xenogen and the mice were imaged using Xenogen's IVIS® imaging system.

[1] = system: MV4;11 cells disseminated to bone marrow; assay: Intravenous MV4;11 bone marrow engraftment model; type: in vivo, SCID-NOD mice
Method: For processing of bone marrow (BM) cells from the mouse MV4;11 engraftment model, femurs were purged with cold saline and red blood cells lysed with FACS lysis buffer (Becton Dickinson). Percent engraftment of human leukemic cells in mouse BM was determined by staining with anti-human HLA-A,B,C-FITC (vs. isotype-matched antibody-FITC control) (BD Pharmingen).
[…]. […] Mice were monitored daily and were euthanized when moribund or early signs of loss of hind limb motility. Increased life span (ILS) of treated mice was calculated as a percent increase in median survival time (MST) vs. vehicle treated control mice.
[…]. In this model, MV4;11 cells disseminate to the bone marrow (BM), pathologically mimicking a disease pattern similar to human leukemia. […]. Histological analyses and flow cytometry were used to quantify the % engraftment of MV4;11 cells in BM. In flow cytometric analyses, human MV4;11 cells were identified in mouse BM with an anti-human HLA-A,B,C antibody which binds to an epitope on human MHCI. In vehicle-treated mice, approximately 2-19% of total isolated BM cells consisted of engrafted MV4;11 cells (day 51,). This was also corroborated by immunohistochemistry with an antibody to human mitochondria which stains MV4;11 cells identifying the human cells in the mouse BM matrix. […].

MV4;11 tumors = assay: Subcutaneous MV4;11 xenograft model; type: in vivo, SCID-NOD mice
P-glycoprotein = P-glycoprotein (Homo sapiens, UniProt P08183); assay: P-glycoprotein substrate status; type: in vitro ADME
Sequence of P-glycoprotein (P08183 whole entry): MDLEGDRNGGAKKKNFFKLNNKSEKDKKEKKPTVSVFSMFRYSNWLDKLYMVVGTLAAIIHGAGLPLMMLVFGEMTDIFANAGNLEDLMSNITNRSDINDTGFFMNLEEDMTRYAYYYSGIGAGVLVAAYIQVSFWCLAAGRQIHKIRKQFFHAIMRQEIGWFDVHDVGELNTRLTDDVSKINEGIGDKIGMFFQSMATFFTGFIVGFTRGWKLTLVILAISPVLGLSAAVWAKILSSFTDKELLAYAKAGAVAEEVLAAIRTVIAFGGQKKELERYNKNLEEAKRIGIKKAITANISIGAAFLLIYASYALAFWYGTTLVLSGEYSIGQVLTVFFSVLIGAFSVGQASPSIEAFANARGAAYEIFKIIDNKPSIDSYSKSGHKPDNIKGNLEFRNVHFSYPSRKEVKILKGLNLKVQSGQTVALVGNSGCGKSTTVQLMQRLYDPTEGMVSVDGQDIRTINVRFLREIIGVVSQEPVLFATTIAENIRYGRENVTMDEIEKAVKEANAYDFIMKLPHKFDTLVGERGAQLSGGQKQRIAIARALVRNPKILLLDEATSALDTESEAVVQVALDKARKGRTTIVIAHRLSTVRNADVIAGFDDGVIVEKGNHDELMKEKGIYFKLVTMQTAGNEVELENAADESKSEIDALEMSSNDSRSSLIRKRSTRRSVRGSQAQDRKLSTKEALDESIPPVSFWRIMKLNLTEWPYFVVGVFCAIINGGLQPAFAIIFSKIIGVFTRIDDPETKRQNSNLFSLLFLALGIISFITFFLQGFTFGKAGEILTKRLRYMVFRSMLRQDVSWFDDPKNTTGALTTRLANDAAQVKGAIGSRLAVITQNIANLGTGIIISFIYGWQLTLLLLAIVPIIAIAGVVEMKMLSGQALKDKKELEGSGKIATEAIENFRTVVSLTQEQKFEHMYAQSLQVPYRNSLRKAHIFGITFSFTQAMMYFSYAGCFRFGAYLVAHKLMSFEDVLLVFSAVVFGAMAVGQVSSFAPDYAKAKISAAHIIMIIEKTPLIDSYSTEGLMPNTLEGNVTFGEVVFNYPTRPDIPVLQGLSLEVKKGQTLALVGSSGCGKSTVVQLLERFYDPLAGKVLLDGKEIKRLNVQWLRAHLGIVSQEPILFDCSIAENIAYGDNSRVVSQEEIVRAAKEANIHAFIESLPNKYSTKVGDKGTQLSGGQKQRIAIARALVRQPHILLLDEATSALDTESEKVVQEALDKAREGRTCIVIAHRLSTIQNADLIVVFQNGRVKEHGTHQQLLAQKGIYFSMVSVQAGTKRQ

Akt⅓ = assay: In vitro kinase assay, Akt; type: biochemical; settings: RTK table
[2] = MV4;11 s.c., 30 mg/kg/d p.o., dose-response study

Compound: CN1CCN(c2ccc3nc(-c4c(N)c5c(F)cccc5[nH]c4=O)[nH]c3c2)CC1 [Compound 1, 4-Amino-5-fluoro-3-[6-(4-methylpiperazin-1-yl)-1H-benzimidazol-2-yl]quinolin-2(1H)-one]
- Photon counts / metastatic growth of PC-3M-luc cells (PC-3M-luc tumor cells; 50 mg/kg p.o. daily, vs. vehicle): trend to inhibit metastatic growth; also recorded: trend of decreased photon count; also recorded: trend to inhibit PC-3M-luc photon counts
- Efficacy compared with taxol (15 mg/kg) (PC-3M-luc tumor cells; 50 mg/kg/d p.o.): more effective than taxol treatment
- Survival (Kaplan-Meier, FIG. 6) ([1]; 20 mg/kg daily or 7 days on/7 days off): prolongs survival
- Median survival time (MST) ([1]; 20 mg/kg p.o. 7 days on/7 days off, 5 cycles): 118 days
- Increased life span (ILS) ([1]; 20 mg/kg p.o. 7 days on/7 days off, 5 cycles, vs. vehicle): 131%
- Long-term survivors (MST >160 days) ([1]; 20 mg/kg p.o. daily): 4 mice
- Median survival time (MST) ([1]; 20 mg/kg p.o. daily, day 23-100): 134 days
- Tumor cells in BM of surviving mice (anti-human mitochondria IHC) ([1]; day 167): no evidence of tumor cells
- Complete responses (CR) (MV4;11 tumors; MV4;11 s.c., 30 mg/kg p.o. daily, schedule study (FIG. 4)): 1
- Tumor growth inhibition (TGI) (MV4;11 tumors; MV4;11 s.c., 30 mg/kg p.o., intermittent dosage regimens): > 94%
- Complete responses (CR) (MV4;11 tumors; [2]): 1
- Tumor responses (MV4;11 tumors; [2]): 9/10
- Doses with significant tumor growth inhibition (MV4;11 tumors; MV4;11 s.c., p.o., FIG. 2): > 5 mg/kg/day
- Minor responses or stable (MV4;11 tumors; large MV4;11 tumors 300, 500 or 1000 mm^3, 30 mg/kg/d, n=27): 15%
- Complete responses durable for 40 days after cessation of dosing (MV4;11 tumors; large MV4;11 tumors, 30 mg/kg/d for 50 days): One CR
- Regression of large MV4;11 tumors (MV4;11 tumors; tumors staged at 300, 500 or 1000 mm^3, 30 mg/kg/d): significant regression in all MV4;11 tumors; also recorded: induces regression of large MV4;11 tumors
- P-GP substrate status (P-glycoprotein): not a P-GP substrate
- IC50 (Akt⅓): > 10 µM
